Data as given in patent US20230270763A1, “METHOD OF TREATING C[…] CANNABINOIDS AND DERIVATIVES” (PASCAL BIOSCIENCES INC., priority 2020, published 2023).
Where two headings read alike, the source gives them in different places.

How the values were obtained:
[1] = tested on: SARS-CoV-2 Everett strain; test: protection of Calu-3 cells from SARS-CoV-2 Everett strain-induced cytotoxicity (CellTiter Glo 2.0); settings: read-out: IC50, protection of Calu-3 cells from SARS2-induced cytotoxicity
[2] = tested on: SARS-CoV-2 Toronto strain; test: cytopathic effect screening assay, SARS-CoV-2 Toronto strain in Vero E6 cells; assay type: cell-based; settings: Severe acute respiratory syndrome coronavirus 2, Vero C1008; Vero E6 cells mixed with virus; CBD 20 nM to 10 μM; cell viability after 72 hours; FIG. 1; read-out: EC50, inhibition of cell death of virally-infected cells
Vero E6 cells = settings: Vero E6 cultures not exposed to virus; 20 nM to 10 μM; 72 hours
SARS-CoV-2 = settings: reported by Nguyen et al., March 2021; cited from earlier work
[3] = Severe acute respiratory syndrome coronavirus 2, Calu-3, 96 h

Row | SMILES | IC50 [1, 3] | EC50 [2] | cytotoxicity over the concentration range tested (Vero E6 cells) | effect on SARS-CoV-2 replication (SARS-CoV-2) | IC50 ([1]; Calu-3, 96 hours, MOI 0.5 to 2.0, three-fold dilutions from 10 μM)
1 | C=C(C)[C@@H]1CCC(C)=C[C@H]1c1c(O)cc(CCC)cc1O [cannabidivarin, (−)-Cannabidivarin] | 43 nM | – | – | – | –
2 | C=C(C)[C@@H]1CCC(C)=C[C@H]1c1c(O)cc(CCCCC)cc1O [CBD, (−)-Cannabidiol] | 120 nM | 8500 nM | No cytotoxicity | inhibits SARS-CoV-2 replication | –
3 | CCCCCc1cc(O)c(C/C=C(\C)CCC=C(C)C)c(O)c1 [cannabigerol, Cannabigerol] | – | – | – | – | 120 nM
